Columns and labels:
[1] = tested on: T-Rex 293 cell line SC3 cells having increased expression of androgen receptor protein due to exposure to doxycycline; test: Cellular growth inhibition, T-Rex 293 SC3 cells with doxycycline (increased androgen receptor expression), CellTiter-Glo; format: cell-based; conditions: T-Rex 293 SC3 cells with 10 ng/mL doxycycline (increased androgen receptor expression), 72 hours, CellTiter-Glo 2.0
Summary of the method: (§1)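 Growth inhibition is measured in an inducible AR-expressing T-Rex 293 clone, SC3, cultured with or without 10 ng/mL doxycycline in hormone-depleted medium. Test compounds are applied for 72 hours. GI50 values derive from CellTiter-Glo 2.0 signal fitted by four-parameter regression.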

[2] = tested on: T-Rex 293 cell line SC3 cells lacking increased expression of androgen receptor protein; test: Cellular growth inhibition, T-Rex 293 SC3 cells without doxycycline (no increased androgen receptor expression), CellTiter-Glo; format: cell-based; conditions: T-Rex 293 SC3 cells not exposed to doxycycline (no increased androgen receptor expression), 72 hours
Summary of the method: as §1

[3] = tested on: VCaP cells; test: Cellular growth inhibition assay for VCaP cells, CellTiter-Glo; format: cell-based, human; conditions: 72 hours
Summary of the method: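 GI50 values come from four-parameter curve fits of luminescence data normalized to a zero baseline. Compound, in medium with 0.5% DMSO, was added one day after plating and left for 72 h before CellTiter-Glo 2.0 addition.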

[4] = tested on: T47D cells; test: Cellular Growth Inhibition Assay for T47D Cells (CellTiter-Glo); format: cell-based, human; conditions: 72 hours
Summary of the method: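 GI50 values derive from four-parameter regression of CellTiter-Glo 2.0 luminescence, using zero luminescence as baseline. Human breast cancer T47D cells (3000/well; DMEM, 10% FBS, 0.2 units/mL insulin) were exposed for 72 h to compound dilutions at 0.5% DMSO, with dosing starting 24 h after seeding.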

SMILES	GI50 [1]	GI50 [2]	GI50 ([3]; Homo sapiens)	GI50 ([4]; Homo sapiens)	GI50 [3]	GI50 [4]
CCS(=O)(=O)Cc1ccc(Oc2cccc(OCCCC3CCN(c4ncc(C(=O)N[C@H]5C(C)(C)[C@H](Oc6ccc(C#N)c(Cl)c6)C5(C)C)cn4)CC3)c2)c(-c2cn(C)c(=O)c3[nH]ccc23)c1 [Compound I-257]	< 500 nM	< 500 nM	< 500 nM	< 500 nM		
Cn1cc(-c2cc(C(C)(C)O)ccc2Oc2ccc(N3CC(CC4CN(c5cnc(C(=O)N[C@H]6C(C)(C)[C@H](Oc7ccc(C#N)c(Cl)c7)C6(C)C)nc5)C4)C3)cc2)c2cc[nH]c2c1=O [Compound I-323]	500 to 1500 nM	500 to 1500 nM	< 500 nM	< 500 nM		
CCS(=O)(=O)Nc1ccc(Oc2cccc(N3CCC(OC4CCN(c5ncc(C(=O)N[C@H]6C(C)(C)[C@H](Oc7ccc(C#N)c(Cl)c7)C6(C)C)cn5)CC4)C3)c2)c(-c2cn(C)c(=O)c3[nH]ccc23)c1 (stereo partly shown) [Compound I-81]	< 500 nM	> 3000 nM	< 500 nM	< 500 nM		
Cn1cc(-c2cc(C(C)(C)O)ccc2O[C@H]2C[C@H](OCC3CCN(c4ncc(C(=O)N[C@H]5C(C)(C)[C@H](Oc6ccc(C#N)c(Cl)c6)C5(C)C)cn4)CC3)C2)c2cc[nH]c2c1=O [Compound I-290]	< 500 nM	< 500 nM			< 500 nM	500 to 1500 nM
Cn1cc(-c2cc(C(C)(C)O)ccc2Oc2ccc(N3CC(CC4CN(c5ccc(C(=O)N[C@H]6C(C)(C)[C@H](Oc7ccc(C#N)c(Cl)c7)C6(C)C)nn5)C4)C3)cc2)c2cc[nH]c2c1=O [Compound I-319]	< 500 nM	< 500 nM	< 500 nM	< 500 nM		
Cn1cc(-c2cc(C(C)(C)O)ccc2Oc2ccc(CCC3CCN(c4ncc(C(=O)NC5C(C)(C)C(Oc6ccc(C#N)c(Cl)c6)C5(C)C)cn4)CC3)cn2)c2cc[nH]c2c1=O (stereo not shown) [Compound I-287, N-[3-(3-chloro-4-cyano-phenoxy)-2,2,4,4-tetramethyl-cyclobutyl]-2-[4-[2-[6-[4-(1-hydroxy-1-methyl-ethyl)-2-(6-methyl-7-oxo-1H-pyrrolo[2,3-c]pyridin-4-yl)phenoxy]-3-pyridyl]ethyl]-1-piperidyl]pyrimidine-5-carboxamide]	< 500 nM	> 3000 nM	500 to 1500 nM	< 500 nM		
Cn1cc(-c2cc(C(C)(C)O)ccc2OC2CC3(C2)CN(CCC2CCN(c4ncc(C(=O)NC5C(C)(C)C(Oc6ccc(C#N)c(Cl)c6)C5(C)C)cn4)CC2)C3)c2cc[nH]c2c1=O (stereo not shown) [Compound I-281, N-[3-(3-chloro-4-cyano-phenoxy)-2,2,4,4-tetramethyl-cyclobutyl]-2-[4-[2-[6-[4-(1-hydroxy-1-methyl-ethyl)-2-(6-methyl-7-oxo-1H-pyrrolo[2,3-c]pyridin-4-yl)phenoxy]-2-azaspiro[3.3]heptan-2-yl]ethyl]-1-piperidyl]pyrimidine-5-carboxamide]	< 500 nM	500 to 1500 nM	< 500 nM	< 500 nM		
CCS(=O)(=O)c1ccc(-c2cn(C)c(=O)c3[nH]ccc23)c(-n2cc(CCC3CCN(c4ncc(C(=O)NC5C(C)(C)C(Oc6ccc(C#N)c(Cl)c6)C5(C)C)cn4)CC3)ncc2=O)c1 (stereo not shown) [Compound I-292, N-[3-(3-chloro-4-cyano-phenoxy)-2,2,4,4-tetramethyl-cyclobutyl]-2-[4-[2-[4-[5-ethylsulfonyl-2-(6-methyl-7-oxo-1H-pyrrolo[2,3-c]pyridin-4-yl)phenyl]-5-oxo-pyrazin-2-yl]ethyl]-1-piperidyl]pyrimidine-5-carboxamide]	< 500 nM	< 500 nM	< 500 nM	< 500 nM		
Cn1cc(-c2cc(C(C)(C)O)ccc2Oc2ccc(CC3CC(C4CCCN(c5ncc(C(=O)N[C@H]6C(C)(C)[C@H](Oc7ccc(C#N)c(Cl)c7)C6(C)C)cn5)C4)C3)cc2)c2cc[nH]c2c1=O (single isomer, unassigned) [Compound I-348]	< 500 nM	> 3000 nM			< 500 nM	< 500 nM
Cn1cc(-c2cc(C(C)(C)O)ccc2OC2CC(OC3CCN(c4ncc(C(=O)NC5C(C)(C)C(Oc6ccc(C#N)c(Cl)c6)C5(C)C)cn4)CC3)C2)c2cc[nH]c2c1=O (stereo not shown) [Compound I-274, N-[3-(3-chloro-4-cyano-phenoxy)-2,2,4,4-tetramethyl-cyclobutyl]-2-[4-[3-[4-(1-hydroxy-1-methyl-ethyl)-2-(6-methyl-7-oxo-1H-pyrrolo[2,3-c]pyridin-4-yl)phenoxy]cyclobutoxy]-1-piperidyl]pyrimidine-5-carboxamide]	< 500 nM	< 500 nM	< 500 nM	< 500 nM		
Cn1cc(-c2cc(C(C)(C)O)ccc2Oc2cccc(N3CC(CN4CCN(c5ncc(C(=O)N[C@H]6C(C)(C)[C@H](Oc7ccc(C#N)c(Cl)c7)C6(C)C)cn5)CC4(C)C)C3)c2F)c2cc[nH]c2c1=O [Compound I-294]	< 500 nM	> 3000 nM			< 500 nM	< 500 nM
Cn1cc(-c2cc(C(C)(C)O)ccc2Oc2ccc(C3CC(N4CC5(CN(c6ncc(C(=O)N[C@H]7C(C)(C)[C@H](Oc8ccc(C#N)c(Cl)c8)C7(C)C)cn6)C5)C4)C3)cc2)c2cc[nH]c2c1=O (stereo partly shown) [Compound I-331]	< 500 nM	< 500 nM			< 500 nM	< 500 nM
Cn1cc(-c2ccccc2Oc2cccc(CCOC3CCN(c4ncc(C(=O)N[C@H]5C(C)(C)[C@H](Oc6ccc(C#N)c(Cl)c6)C5(C)C)cn4)CC3)c2F)c2cc[nH]c2c1=O [Compound I-149]	< 500 nM	< 500 nM			< 500 nM	500 to 1500 nM
Cn1cc(-c2cc(S(C)(=O)=O)ccc2Oc2cccc(CCCC3CCN(c4ncc(C(=O)N[C@H]5C(C)(C)[C@H](Oc6ccc(C#N)c(Cl)c6)C5(C)C)cn4)CC3)c2F)c2cc[nH]c2c1=O [Compound I-250]	< 500 nM	> 3000 nM			500 to 1500 nM	< 500 nM
Cn1cc(-c2cc(C(C)(C)O)ccc2OC(CCCCOC2CCN(c3ncc(C(=O)N[C@H]4C(C)(C)[C@H](Oc5ccc(C#N)c(Cl)c5)C4(C)C)cn3)CC2)C2CC2)c2cc[nH]c2c1=O (stereo partly shown) [Compound I-251]	< 500 nM	500 to 1500 nM			500 to 1500 nM	500 to 1500 nM
Cn1cc(-c2cc(S(C)(=O)=O)ccc2Oc2cccc(N3CC(OC4CCN(c5ncc(C(=O)N[C@H]6C(C)(C)[C@H](Oc7ccc(C#N)c(Cl)c7)C6(C)C)cn5)CC4)C3)c2F)c2cc[nH]c2c1=O [Compound I-191]	< 500 nM	< 500 nM			< 500 nM	< 500 nM
Cn1cc(-c2cc(C(C)(C)O)ccc2Oc2ccc(CCN3CC4(C3)CN(c3ncc(C(=O)N[C@H]5C(C)(C)[C@H](Oc6ccc(C#N)c(Cl)c6)C5(C)C)cn3)C4)cc2)c2cc[nH]c2c1=O [Compound I-259]	< 500 nM	500 to 1500 nM			< 500 nM	< 500 nM
Cn1cc(-c2cc(C(C)(C)O)ccc2Oc2ccc(CN3CC4(C3)CN(c3ncc(C(=O)N[C@H]5C(C)(C)[C@H](Oc6ccc(C#N)c(Cl)c6)C5(C)C)cn3)C4)cc2)c2cc[nH]c2c1=O [Compound I-327]	< 500 nM	< 500 nM	< 500 nM	< 500 nM		
Cn1cc(-c2cc(C(C)(C)O)ccc2OCC(CCCN2CCN(c3ncc(C(=O)N[C@H]4C(C)(C)[C@H](Oc5ccc(C#N)c(Cl)c5)C4(C)C)cn3)CC2)C2CC2)c2cc[nH]c2c1=O (stereo partly shown) [Compound I-237]	< 500 nM	500 to 1500 nM	500 to 1500 nM	500 to 1500 nM		
CCS(=O)(=O)c1ccc(Oc2ccc(CN3CC4(C3)CN(c3ncc(C(=O)N[C@H]5C(C)(C)[C@H](Oc6ccc(C#N)c(Cl)c6)C5(C)C)cn3)CCO4)cc2)c(-c2cn(C)c(=O)c3[nH]ccc23)c1 [Compound I-261]	< 500 nM	< 500 nM			< 500 nM	< 500 nM
CCS(=O)(=O)c1ccc(Oc2ccc(CCC3CCN(c4ncc(C(=O)N[C@H]5C(C)(C)[C@H](Oc6ccc(C#N)c(Cl)c6)C5(C)C)cn4)CC3)c(F)c2)c(-c2cn(C)c(=O)c3[nH]ccc23)c1 [Compound I-284]	< 500 nM	> 3000 nM			< 500 nM	< 500 nM
Cn1cc(-c2cc(C(C)(C)O)ccc2Oc2ccc(F)c(OCCN3CC4(C3)CN(c3ncc(C(=O)N[C@H]5C(C)(C)[C@H](Oc6ccc(C#N)c(Cl)c6)C5(C)C)cn3)C4)c2F)c2cc[nH]c2c1=O [Compound I-239]	< 500 nM	< 500 nM			< 500 nM	< 500 nM
Cn1cc(-c2cc(C(C)(C)O)ccc2Oc2ccc(CCC3CN(c4ncc(C(=O)N[C@H]5C(C)(C)[C@H](Oc6ccc(C#N)c(Cl)c6)C5(C)C)cn4)CCO3)cc2)c2cc[nH]c2c1=O (stereo partly shown) [Compound I-305]	< 500 nM	> 3000 nM	< 500 nM	< 500 nM		
Cn1cc(-c2cc(C(C)(C)O)ccc2Oc2ccc(C3CC(N4CCN(c5ncc(C(=O)N[C@H]6C(C)(C)[C@H](Oc7ccc(C#N)c(Cl)c7)C6(C)C)cn5)CC4)C3)cc2)c2cc[nH]c2c1=O (stereo partly shown) [Compound I-311]	< 500 nM	500 to 1500 nM			< 500 nM	< 500 nM
Cn1cc(-c2cc(NS(=O)(=O)C3CC3)ccc2Oc2cccc(N3CC(OC4CCN(c5ncc(C(=O)N[C@H]6C(C)(C)[C@H](Oc7ccc(C#N)c(Cl)c7)C6(C)C)cn5)CC4)C3)c2F)c2cc[nH]c2c1=O [Compound I-171]	< 500 nM	> 3000 nM			> 3000 nM	< 500 nM

— patent US20250388605A1, “HETEROBIFUNCTIONAL COMPOUNDS AND METHODS OF TREATING DISEASE” (Halda Therapeutics OpCo, Inc., priority 2022, published 2025)
